Assays:
BCL-xL = biological target: T1, BCL-xL (Homo sapiens, UniProt Q07817); assay: Binding activity for BCL-xL (HTRF, biotin-labeled BIM); conditions: His-tagged BCL-xL
T1 construct: purchased R&D 894-BX-050
Protocol: In vitro BCL-xL-binding activity was tested by the following method.
Reagents used in this experiment: His-tagged BCL-xL protein (R&D, Cat #894-BX-050); biotin-labeled BIM protein (R&D, Cat #3526/1); binding buffer (cisbio, Cat #62DLBDDF); assay buffer (cisbio, Cat #62DB1FDG); MAb anti-6His-Eu cryptate (cisbio, Cat #61HI2KLA); and affinity streptomycin linked XL665 (cisbio, Cat #611SAXLA).
The in vitro binding assay described below can determine the binding activity of test compounds for BCL-xL.
The test compounds were dissolved in dimethyl sulfoxide and diluted to gradient concentrations as required for the experiment, and the compounds at various concentrations formulated in dimethyl sulfoxide were subjected to a 100-fold dilution with a binding buffer. BCL-xL was diluted to the corresponding concentration with a binding buffer, and added to a white 384-well plate at 4 μL/well. Then the diluted test compound was added to the white 384-well plate at 2 μL/well. The plate was incubated at 25° C. for 1 h after the mixture was uniformly mixed. Biotin-labeled BIM protein was diluted to the corresponding concentration with a binding buffer, and added to a white 384-well plate at 4 μL/well. The plate was incubated at 25° C. for 2 h after the mixture was uniformly mixed. The MAb anti-6His-Eu cryptate and the affinity streptomycin linked XL665 were each diluted to the corresponding concentration with an assay buffer, and added to a white 384-well plate at 5 μL/well. The plate was incubated at 25° C. for 2-4 h after the mixture was uniformly mixed. The signal values were read with the HTRF program in a microplate reader (BMG Labtech, model: PHERAstar FS).

BCL-2 = biological target: T2, BCL-2 (Homo sapiens, UniProt P10415); assay: Binding activity for BCL-2 (HTRF, biotin-labeled BIM); conditions: His-tagged BCL-2, biotin-labeled BIM
T2 construct: purchased R&D systems 827-BC-050
Protocol: In vitro BCL-2-binding activity was tested by the following method.
Reagents used in this experiment: His-tagged BCL-2 protein (R&D systems, Cat #827-BC-050); biotin-labeled BIM protein (R&D, Cat #3526/1); binding buffer (cisbio, Cat #62DLBDDF); assay buffer (cisbio, Cat #62DB1FDG); MAb anti-6His-Eu cryptate (cisbio, Cat #61HI2KLA); and affinity streptomycin linked XL665 (cisbio, Cat #611SAXLA).
The in vitro binding assay described below can determine the binding activity of test compounds for BCL-2.
The test compounds were dissolved in dimethyl sulfoxide and diluted to gradient concentrations as required for the experiment, and the compounds at various concentrations formulated in dimethyl sulfoxide were subjected to a 100-fold dilution with a binding buffer. BCL-2 was diluted to the corresponding concentration with a binding buffer solution, and added to a white 384-well plate at 4 μL/well. Then the diluted test compound was added into the white 384-well plate at 2 μL/well. The plate was incubated at 25° C. for 1 h after the mixture was uniformly mixed. Biotin-labeled BIM protein was diluted to the corresponding concentration with a binding buffer, and added to a white 384-well plate at 4 μL/well. The plate was incubated at 25° C. for 2 h after the mixture was uniformly mixed. The MAb anti-6His-Eu cryptate and the affinity streptomycin linked XL665 were each diluted to the corresponding concentration with an assay buffer, and added to a white 384-well plate at 5 μL/well. The plate was incubated at 25° C. for 2-4 h after the mixture was uniformly mixed. The signal values were read with the HTRF program in a microplate reader (BMG Labtech, model: PHERAstar FS).

NCI-H146 cells = assay: Inhibition of proliferation of NCI-H146 cells (CellTiter-Glo); type: cell-based; conditions: Homo sapiens, 72 h, 3 days, read-out: Inhibitory activity IC50 (nM) for the proliferation of NCI-H146 cells
Protocol: (§1) In vitro inhibitory activity for the proliferation of RS4;11 cells and NCI-H146 cells was tested by the following method.
(§2) Reagents used in this experiment: RPMI-1640 medium (HyCLone, Cat #SH30243018); fetal bovine serum (Gibco, Cat #10099-141); pancreatin (Gibco, Cat #25200-072); Cell Titer-Glo (Promega, Cat #G7571).
(§3) Materials used: RS4;11 cells (Nanjing Kebai Biotechnology Co., Ltd, Cat #CBP60641); and NCI-H146 cells (ATCC, Cat #HTB-173).
(§4) The in vitro cell proliferation assay described below can determine the inhibitory activity of the test compounds for the proliferation of RS4;11 cells and NCI-H146 cells.
(§5) RS4;11 cells (or NCI-H146 cells) were cultured in an RPMI-1640 culture medium containing 10% FBS, and were passaged for 2-3 times a week in a passage ratio of 1:3 or 1:5. During passage, the cells were transferred to a centrifuge tube, and centrifuged at 1200 rpm for 3 min. The supernatant was discarded, and fresh culture medium was added to resuspend the cells. 90 μL of cell suspension was added to a 96-well cell culture plate, wherein RS4;11 cells and NCI-H146 cells were added at a density of 2.22×10^5 cells/mL. Only 100 μL of complete medium (RPMI-1640 medium containing 10% FBS) was added to the periphery of the 96-well plate. The plate was incubated in an incubator for 24 h (37° C., 5% CO2).
(§6) The test sample was diluted to a proper concentration gradient with dimethyl sulfoxide as required for the experiment. 5 μL of the solution of the test compound prepared in a gradient concentration was added to 95 μL of fresh culture medium and mixed uniformly, and then 10 μL of the culture medium containing the above compound was added to a cell culture plate. The cell culture plate was incubated in an incubator for 3 days (37° C., 5% CO2). 50 μL of CellTiter-Glo reagent was added into each well of the 96-well cell culture plate. The plate was let stand for 5-10 min away from the light at room temperature. The chemiluminescence signals were read by a microplate reader (BMG Labtech, model: PHERAstar FS) and the data were processed by GraphPad software.

RS4;11 cells = assay: Inhibition of proliferation of RS4;11 cells (CellTiter-Glo); type: cell-based; conditions: Homo sapiens, 72 h, 3 days, read-out: Inhibitory activity IC50 (nM) for the proliferation of RS4;11 cells
Protocol: as §1, §2, §3, §4, §5, §6

T2 sequence (P10415 whole entry): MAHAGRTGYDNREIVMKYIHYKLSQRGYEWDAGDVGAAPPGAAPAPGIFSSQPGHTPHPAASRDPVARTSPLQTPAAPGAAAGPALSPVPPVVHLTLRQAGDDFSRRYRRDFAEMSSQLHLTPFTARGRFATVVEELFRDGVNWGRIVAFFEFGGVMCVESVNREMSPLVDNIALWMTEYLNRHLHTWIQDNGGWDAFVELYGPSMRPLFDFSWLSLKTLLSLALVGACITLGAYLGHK
T1 sequence (Q07817 whole entry): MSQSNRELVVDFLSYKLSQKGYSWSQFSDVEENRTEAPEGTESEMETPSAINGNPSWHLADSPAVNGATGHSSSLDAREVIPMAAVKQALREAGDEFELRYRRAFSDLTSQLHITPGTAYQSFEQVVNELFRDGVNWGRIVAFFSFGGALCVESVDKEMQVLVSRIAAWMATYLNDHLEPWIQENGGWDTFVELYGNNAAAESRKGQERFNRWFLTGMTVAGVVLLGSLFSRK

| Ki (BCL-xL) [nM] | Ki (BCL-2) [nM] | IC50 (NCI-H146 cells) [nM] | IC50 (RS4;11 cells) [nM] | SMILES |
| --- | --- | --- | --- | --- |
| 0.09 | 0.07 | 36 | 23 | O=C(NS(=O)(=O)c1ccc(N[C@@H](CSc2ccccc2)C[C@H]2CCCN2)c(S(=O)(=O)C(F)(F)F)c1)c1ccc(N2CCC([C@@H](O)c3ccccc3-c3ccc(Cl)cc3)CC2)cc1 [Example 2-1, 4-(4-((R)-(4′-chloro-[1,1′-biphenyl]-2-yl)(hydroxy)methyl)piperidin-1-yl)-N-((4-(((R)-1-(phenylthio)-3-((R)-pyrrolidin-2-yl)propan-2-yl)amino)-3-((trifluoromethyl)sulfonyl)phenyl)sulfonyl)benzamide] |
| 0.24 | 0.07 | 33 | 7 | O=C(NS(=O)(=O)c1ccc(N[C@@H](CSc2ccccc2)C[C@H]2CCCN2CCO)c(S(=O)(=O)C(F)(F)F)c1)c1ccc(N2CCC([C@@H](O)c3ccccc3-c3ccc(Cl)cc3)CC2)cc1 [Example 2-2, 4-(4-((R)-(4′-chloro-[1,1′-biphenyl]-2-yl)(hydroxy)methyl)piperidin-1-yl)-N-((4-(((R)-1-((R)-1-(2-hydroxyethyl)pyrrolidin-2-yl)-3-(phenylthio)propan-2-yl)amino)-3-((trifluoromethyl)sulfonyl)phenyl)sulfonyl)benzamide] |
| 0.17 | 0.1 | 74 | 58 | CO[C@@H](c1ccccc1-c1ccc(Cl)cc1)C1CCN(c2ccc(C(=O)NS(=O)(=O)c3ccc(N[C@@H](CSc4ccccc4)C[C@H]4CCCN4)c(S(=O)(=O)C(F)(F)F)c3)cc2)CC1 [Example 2-3, 4-(4-((R)-(4′-chloro-[1,1′-biphenyl]-2-yl)(methoxy)methyl)piperidin-1-yl)-N-((4-(((R)-1-(phenylthio)-3-((R)-pyrrolidin-2-yl)propan-2-yl)amino)-3-((trifluoromethyl)sulfonyl)phenyl)sulfonyl)benzamide] |
| 0.32 | 0.13 | 94 | 34 | CO[C@@H](c1ccccc1-c1ccc(Cl)cc1)C1CCN(c2ccc(C(=O)NS(=O)(=O)c3ccc(N[C@@H](CSc4ccccc4)C[C@H]4CCCN4CCO)c(S(=O)(=O)C(F)(F)F)c3)cc2)CC1 [Example 2-4, 4-(4-((R)-(4′-chloro-[1,1′-biphenyl]-2-yl)(methoxy)methyl)piperidin-1-yl)-N-((4-(((R)-1-((R)-1-(2-hydroxyethyl)pyrrolidin-2-yl)-3-(phenylthio)propan-2-yl)amino)-3-((trifluoromethyl)sulfonyl)phenyl)sulfonyl)benzamide] |
| 0.45 | 0.13 | 55 | 9 | O=C(NS(=O)(=O)c1ccc(N[C@@H](CSc2ccccc2)C[C@H]2CCCN2CCCO)c(S(=O)(=O)C(F)(F)F)c1)c1ccc(N2CCC([C@@H](O)c3ccccc3-c3ccc(Cl)cc3)CC2)cc1 [Example 2-5, 4-(4-((R)-(4′-chloro-[1,1′-biphenyl]-2-yl)(hydroxy)methyl)piperidin-1-yl)-N-((4-(((R)-1-((R)-1-(3-hydroxypropyl)pyrrolidin-2-yl)-3-(phenylthio)propan-2-yl)amino)-3-((trifluoromethyl)sulfonyl)phenyl)sulfonyl)benzamide] |
|  | 0.34 |  |  | CC(Sc1ccccc1)[C@@H](CCN(C)CCO)Nc1ccc(S(=O)(=O)NC(=O)c2ccc(N3CCC([C@@H](O)c4ccccc4-c4ccc(C(F)(F)F)cc4)CC3)cc2)cc1S(=O)(=O)C(F)(F)F (stereo partly drawn) [Example 2-7, 4-(4-((R)-hydroxy(4′-(trifluoromethyl)-[1,1′-biphenyl]-2-yl)methyl)piperidin-1-yl)-N-((4-(((3R)-1-((2-hydroxyethyl)(methyl)amino)-4-(phenylthio)pentan-3-yl)amino)-3-((trifluoromethyl)sulfonyl)phenyl)sulfonyl)benzamide] |
| 0.3 | 0.11 | 46 | 18 | O=C(NS(=O)(=O)c1ccc(N[C@@H](CSc2ccccc2)C[C@@H]2CCCN2)c(S(=O)(=O)C(F)(F)F)c1)c1ccc(N2CCC([C@@H](O)c3ccccc3-c3ccc(Cl)cc3)CC2)cc1 [Example 2-8, 4-(4-((R)-(4′-chloro-[1,1′-biphenyl]-2-yl)(hydroxy)methyl)piperidin-1-yl)-N-((4-(((R)-1-(phenylthio)-3-((S)-pyrrolidin-2-yl)propan-2-yl)amino)-3-((trifluoromethyl)sulfonyl)phenyl)sulfonyl)benzamide] |
| 0.1 | 0.04 | 16 | 5 | O=C(NS(=O)(=O)c1ccc(N[C@@H](CSc2ccccc2)C[C@@H]2CCCN2CCCO)c(S(=O)(=O)C(F)(F)F)c1)c1ccc(N2CCC([C@@H](O)c3ccccc3-c3ccc(Cl)cc3)CC2)cc1 [Example 2-11, 4-(4-((R)-(4′-chloro-[1,1′-biphenyl]-2-yl)(hydroxy)methyl)piperidin-1-yl)-N-((4-(((R)-1-((S)-1-(3-hydroxypropyl)pyrrolidin-2-yl)-3-(phenylthio)propan-2-yl)amino)-3-((trifluoromethyl)sulfonyl)phenyl)sulfonyl)benzamide] |
| 0.15 | 0.04 |  |  | O=C(NS(=O)(=O)c1ccc(N[C@@H](CSc2ccccc2)C[C@@H]2CCCN2)c(S(=O)(=O)C(F)(F)F)c1)c1ccc(N2CCC([C@@H](O)c3ccccc3-c3ccc(C(F)(F)F)cc3)CC2)cc1 [Example 2-12, 4-(4-((R)-hydroxy(4′-(trifluoromethyl)-[1,1′-biphenyl]-2-yl)methyl)piperidin-1-yl)-N-((4-(((R)-1-(phenylthio)-3-((S)-pyrrolidin-2-yl)propan-2-yl)amino)-3-((trifluoromethyl)sulfonyl)phenyl)sulfonyl)benzamide] |
